We go through one molecule from publication PMC13500670, “The U1 snRNP protein U1C and Helix H of U1 snRNA are critical for small molecule splicing modulator function” (Nature Communications, 2026).

Experiment [1] has as its system SMN2 exon 7 skipping, HEK293T cells. Kind of experiment: SMN2 splicing minigene reporter assay (luciferase). The format is cell-based. The conditions noted are these: Homo sapiens, HEK-293T, Fig. 3A, 36 h, 0.012 to 9 µM. (In general: Reporter assays use an easily measured gene product as a stand-in for the process of interest.)
Procedure: Exon 7 inclusion places the GLuc gene out of frame, thereby reducing luciferase activity. […] Transfection was performed in 10 cm dishes using Lipofectamine 2000 (Thermo, #11668019) according to the manufacturer’s protocol. […] Compounds were dispensed in duplicate across a 1:3 serial dilution series ranging from 0.012 to 9 µM. Following a 36 h incubation at 37 °C, luciferase activity was assessed by adding 12 µL of a custom luciferase reagent to each well. The luciferase reagent (12 mL total volume) consisted of 60 µL 50× coelenterazine substrate (Nanolight, #320), 3 mL Nanolight GLuc buffer, 30 µL 10% Triton X-100 (Thermo, #A16046.AP), and 8.9 mL deionized water. Plates were shaken at 600 rpm for 6 min, and luminescence was measured using a Cytation 5 multimode plate reader (BioTek). Half-maximal effective concentration (EC50) values were calculated using GraphPad Prism (v10.4) with four-parameter nonlinear regression curve fitting.
The subject of experiment [2] is cassette exon / GA/GU iExon inclusion, HEK293 cells, scr siRNA. Kind of experiment: RNA-seq splicing analysis, compound dose response, scrambled (mock) siRNA. The experiment is classed as cell-based, human. From the text: (§1) Skipped exons are highly enriched for noncanonical 5′ ss sequences (on either the intronic or exonic side), which account for 90% of skipped exons (Supplementary Fig. 8C). For example, among skipped exons with a canonical exonic 5′ ss sequence, 74% contain noncanonical intron sequence. These observations are consistent with the previous published role for U1C stabilization of the U1 snRNA-pre-mRNA duplex at the 5′ ss[25]–[28]. […] We will refer to these as class I exons for clarity in later discussion.
(§2) We next examined the effect of U1C knockdown on compound-mediated splicing. […] We next used the complete dose response to calculate the effective concentration at which deltaPSIcompound-DMSO is 30 (EC-dPSI30).
(§3) HEK293T cells were grown in DMEM media with 10% FBS. 500,000 cells in 1.75 mL of media were plated into a 6-well plate for approximately 6 h. Either siRNA negative control (ThermoFisher Silencer^TM Negative control #2, AM4613) or U1C siRNA (ThermoFisher Silencer^TM Select Pre-designed siRNA, S13225) were transfected for a final concentration of 25 nM using Invitrogen Lipofectamine RNAiMax (13778-150). In brief, 10 μL 5 μM siRNA was added to 115 μL of OptiMEM, while 5 μL Lipofectamine added to 120 μL OptiMEM for 5 minu before mixing the solutions and incubating for 20 min. 250 μL of Lipofectamine:siRNA solution was gentle added to the 1.75 mL cells. After 24 h post-transfection, cells were treated with 10 μL compound resuspended in DMSO. […] Each compound-treated experimental condition was treated and collected in duplicate, while four DMSO only treated samples per siRNA transfection were collected. RNA was isolated using KingFisher^TM Apex instrument and the MagMAX™ mirVana™ Total RNA Isolation Kit (A27828) by Thermo Fisher according to manufacturer’s protocol. Isolated RNA was submitted to Admera Health for library preparation (polyA selected, stranded) and mRNA-sequencing and >20 M 150 bp pair-end reads were returned.
RNAseq and splicing analysis were described earlier using DEDseq (https:// github.com/liwc01/DEDSeq[18]) with minor modifications. RNA sequencing reads were mapped to human genome (hg19) using STAR (version 2.7.10b); only uniquely mapped reads (with MAPQ > 10) with <5 nt/100 nt mismatches and properly paired reads were used. For splicing analysis, all junction reads (read with a gap in alignment indicating splicing) were used, including the ones mapped to unannotated splice sites. Reads were counted for different exons (for cassette exon [CE]) or exonic regions (for A5′ss or A3′ss). For each splicing event, a percent-spliced-in (PSI) value was calculated using the percent of average read number supporting the inclusion among all reads supporting either the inclusion or the exclusion. A minimum of 10 for the denominator of PSI calculation was required. Otherwise, a “NA” value would be generated. PSI values for biological replicates were averaged, and the PSI difference between the two treatment groups was calculated. For a statistical test, a 2 × 2 read counts table was made for each event, with rows for reads supporting inclusion or exclusion, and columns for the two comparing sample groups. Fisher’s exact test was used for the statistical tests. For biological replicates, each pair of the testing and control sample was analyzed by Fisher’s exact test and the geometric mean of all P-values was reported as a final P-value. PSI change (deltaPSI) of >10% (or < −10%) and P < 0.001 was used to select splicing events being regulated by the treatment. PSI calculation, Fisher’s exact test were performed using R (4.0.5). 5′ ss composition analysis was performed as described in ref. [25]. Potency of splicing modulator was determined by plotting dPSI and identifying the concentration at which the change in PSI reached 30% and reported as EC_dPSI30.

Experiment [3] concerns cassette exon / GA/GU iExon inclusion, HEK293 cells, U1C KD. Kind of experiment: RNA-seq splicing analysis, compound dose response, U1C knockdown. The format is cell-based, human.
Source text: as §1, §2, §3
RNAseq and splicing analysis were described earlier using DEDseq (https:// github.com/liwc01/DEDSeq[18]) with minor modifications. RNA sequencing reads were mapped to human genome (hg19) using STAR (version 2.7.10b); only uniquely mapped reads (with MAPQ > 10) with <5 nt/100 nt mismatches and properly paired reads were used. For splicing analysis, all junction reads (read with a gap in alignment indicating splicing) were used, including the ones mapped to unannotated splice sites. Reads were counted for different exons (for cassette exon [CE]) or exonic regions (for A5′ss or A3′ss). For each splicing event, a percent-spliced-in (PSI) value was calculated using the percent of average read number supporting the inclusion among all reads supporting either the inclusion or the exclusion. A minimum of 10 for the denominator of PSI calculation was required. Otherwise, a “NA” value would be generated. PSI values for biological replicates were averaged, and the PSI difference between the two treatment groups was calculated. For a statistical test, a 2 × 2 read counts table was made for each event, with rows for reads supporting inclusion or exclusion, and columns for the two comparing sample groups. […] For biological replicates, each pair of the testing and control sample was analyzed by Fisher’s exact test and the geometric mean of all P-values was reported as a final P-value. […] Potency of splicing modulator was determined by plotting dPSI and identifying the concentration at which the change in PSI reached 30% and reported as EC_dPSI30.

The test system of experiment [4] is c12orf4 iExon 1a, DENND4A, SCO1, DPH1 iExon inclusion. As to the kind of experiment: End-point RT-PCR of iExon inclusion, scr control versus U1C KD. The format is cell-based, human. Conditions: c12orf4 iExon 1a and DENND4A; 3uM, 1uM, 250nm, 100nM. The protocol:
A total of 500,000 SH-SY5Y cells were plated in 6-well tissue culture plates. After 4 h of recovery, cells were transfected with final 100 nM siRNA (silencer select s13212 or negative control No.2 from Ambion) using Lipofectamin RNAi Max (ThermoFisher) according to the manufacturer’s protocol. After 24 h incubation, cells were treated with splicing modulating compounds for additional 24 h. Cells were lysed in RLT buffer ( + beta-mercaptoethanol) and RNA was extracted using the RNeasy kit (Qiagen) according to the manufacturer’s protocol.
Knockdown was confirmed by RT-qPCR using TaqMan assays (Hs00863364_gH, Hs02758991_g1, from ThermoFisher). Splicing changes were confirmed by endpoint PCR using the primer sets listed in Supplementary Table 1. Relative amounts of U1C RNA were calculated for control knockdown vs. U1C knockdown (normalized to GAPDH expression level).
HEK293 cells were transfected for siRNA in 6-well plates, similarly as for RNA-sequencing above. […] Overexpression of 1.5 μg pMEV-2HA-EV or pMEV-U1C-2HA was carried out with Lipofectamine3000 (L3000008) 6 h later. RNA was harvested 24 h later, extracted as above, and reverse transcribed with a Qiagen QuantiTect RT kit (205311). […]

The subject of experiment [5] is splicing events in human SH-SY5Y cells. Conditions: 24 nM (approximately 2 times the IC50 for HTT), 24 h; cited from earlier work.

Broadly, the EC50 is the midpoint of the concentration-response curve. `CC1(C)CC(Oc2ccc(-c3ccc(-c4cn[nH]c4)cc3O)nn2)CC(C)(C)N1` [Branaplam, branaplam] gave an EC50 in experiment [1] of 59.6 nM. Further, in experiment [2] (5nM branaplam), the “PSI of CMSS1 iExon” value is reported as 6. The “PSI of WNK4 iExon” value in experiment [2] (5nM branaplam) is recorded as 6.7. The “PSI of PDXDC1 iExon” value was 2.9 PSI in experiment [2] (5nM, mock, DMSO baseline […]) and 2.6 PSI in experiment [3] (5nM, U1C KD, DMSO baseline […]). Also, the “geomean pEC_dPSI30 for all GA/GU iExons” value in experiment [2] (Fig. 8C, mock knockdown, -log10 of compound concentration when dPSI achieves 30%) is recorded as 6.61; in experiment [3] (Fig. 8C, U1C KD), 6.10. The “number of exons with GA/GU 5' ss significantly induced with deltaPSI compound-DMSO >10” value in experiment [2] (highest concentration of branaplam) was “approximately 1200”. For the same molecule, the “saturation PSI of PDXDC1 iExon” value in experiment [2] (highest dose, mock and U1C KD reach similar saturation) was around 50. In addition, the “U1CKD Log10 effect” value in experiment [3] (Fig. 8C picture, pEC-dPSI30 mock versus U1C KD) is -0.51. Further, the “effect of U1C knockdown on compound potency by end-point PCR” value in experiment [4] is on record as “reduces”. In addition, in experiment [5], the “number of splicing events affected” value is 165.
